Assay in all cases: relative viability (nuclei count vs DMSO), 5 days (fraction); higher = more cells survive
Compound in assay [1]: COc1cc2nccc(Oc3ccc(NC(=O)C4(C(=O)Nc5ccc(F)cc5)CC4)cc3)c2cc1OC [Cabozantinib] + Nc1nc2[nH]cc(CCc3ccc(C(=O)N[C@@H](CCC(=O)O)C(=O)O)cc3)c2c(=O)[nH]1 [Pemetrexed] (partner 0.2 µM)
An outline of the steps: (§1)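 The day after seeding in 1536-well plates, lung cancer cell lines were treated by pin tool with a single drug, or with a fixed anchor-drug dose together with five library-drug doses (not always all listed) in √10 steps. After 5 days, a combined fix-and-stain solution (final 0.05% Triton X-100, 1% formaldehyde, 1 ug/ml Hoechst) was added. Nuclei counted on 4× images gave relative viability as treated counts over vehicle counts, reported as the median of duplicate plates.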

Compound in assay [2]: COc1cc2nccc(Oc3ccc(NC(=O)C4(C(=O)Nc5ccc(F)cc5)CC4)cc3)c2cc1OC [Cabozantinib] + CC(=O)c1c(C)c2cnc(Nc3ccc(N4CCNCC4)cn3)nc2n(C2CCCC2)c1=O [Palbociclib] (partner 0.5 µM)
The method in brief: as §1

Compound in assay [3]: COc1cc2nccc(Oc3ccc(NC(=O)C4(C(=O)Nc5ccc(F)cc5)CC4)cc3)c2cc1OC [Cabozantinib] + CCNC(=O)c1noc(-c2cc(C(C)C)c(O)cc2O)c1-c1ccc(CN2CCOCC2)cc1 [Luminespib] (partner 0.01 µM)
The method in brief: as §1

Compound in the assay “Zosuquidar + Pemetrexed”: O[C@@H](COc1cccc2ncccc12)CN1CCN([C@@H]2c3ccccc3[C@@H]3[C@H](c4ccccc42)C3(F)F)CC1 [Zosuquidar] + Nc1nc2[nH]cc(CCc3ccc(C(=O)N[C@@H](CCC(=O)O)C(=O)O)cc3)c2c(=O)[nH]1 [Pemetrexed] (partner 0.2 µM)
An outline of the steps:
as §1

These results are taken from the supplement of paper PMC10307832.

For the cell line UMC-11, the relative viability stood at 0.802 in assay [1] (first compound 0.02 µM); 0.879 in assay [1] (first compound 0.06325 µM); 0.782 in assay [1] (first compound 0.2 µM); 0.837 in assay [1] (first compound 0.6325 µM); 0.747 in assay [1] (first compound 2 µM); 0.352 in assay [2] (first compound 0.02 µM). Also, the relative viability in assay [2] (first compound 0.06325 µM) was determined as 0.324; in assay [2] (first compound 0.2 µM), 0.336; in assay [2] (first compound 0.6325 µM) it was 0.312; in assay [2] (first compound 2 µM), 0.334; in assay [3] (first compound 0.02 µM) it was 0.941; in assay [3] (first compound 0.06325 µM) it was 1.09. Moreover, the relative viability in assay [3] (first compound 0.2 µM) was determined as 1.1; in assay [3] (first compound 0.6325 µM), 1.09; in assay [3] (first compound 2 µM), 1.09; in the assay with Zosuquidar + Pemetrexed (first compound 0.01 µM) it was 0.739; with Zosuquidar + Pemetrexed (first compound 0.03162 µM), 0.739; with Zosuquidar + Pemetrexed (first compound 0.1 µM), 0.894. In addition, the values for the relative viability in the assay with Zosuquidar + Pemetrexed (first compound 0.3162 µM) and in the assay with Zosuquidar + Pemetrexed (first compound 1 µM) were 0.858 and 0.86, respectively.
